Results as given in US20220119868A1, “PROFILING RNA-SMALL MOLECULE BINDING SITES WITH OLIGONUCLEOTIDES” (priority 2018, published 2022).

Test system: SL I site of HCV RNA in replicon cells
Assay: Oligonucleotide profiling of target engagement in cells by RT-qPCR
Assay type: cell-based, Hepatitis C virus
Description: Given these favorable results in vitro, the competitive cleaving approach was used to map cellular ligand binding sites. […] Previous approaches to map small molecule-RNA binding sites, such as Chemical Cross-Linking and Isolation by Pull-down (Chem-CLIP)59-61 and Small Molecule Nucleic Acid Profiling by Cleavage Applied to RNA (Ribo-SNAP)61, require the synthesis of derivatives of the lead molecules that allow them to cross-link or cleave and RNA target, respectively. […] Guan, L. and Disney, M. D. (2012). Recent advances in developing small molecules targeting RNA. ACS Chem. Biol. 7, 73-86. • 2. Thomas, J. R. and Hergenrother, P. J. (2008). Targeting RNA with small molecules. Chem. Rev. 108, 1171-1224. • 3. Blount, K. F. and Breaker, R. R. (2006). Riboswitches as antibacterial drug targets. Nat. Biotechnol. 24, 1558-1564. • 4. Tenson, T. and Mankin, A. (2006). Antibiotics and the ribosome. Mol. Microbiol. 59, 1664-1677. • 5. Schlunzen, F., Zarivach, R., Harms, J., Bashan, A., Tocilj, A., Albrecht, R., Yonath, A. and Franceschi, F. (2001). Structural basis for the interaction of antibiotics with the peptidyl transferase centre in eubacteria. Nature 413, 814-821. • 6. Hermann, T. (2016). Small molecules targeting viral rna. Wiley Interdiscip. Rev. RNA 7, 726-743. • 7. Ohgushi, M., Kuroki, S., Fukamachi, H., O'Reilly, L. A., Kuida, K., Strasser, A. and Yonehara, S. (2005). […]

For `O=C(Nc1ccc(C2=NCCN2)cc1)c1cc(C(=O)Nc2ccc(C3=NCCN3)cc2)cc(C(=O)Nc2ccc(C3=NCCN3)cc2)c1` [Compound 8], the “rescue of ASO-induced cleavage in cells” value (Control ASO complementary to a downstream site) was “does not rescue cleavage” and the “inhibition of ASO-induced cleavage in cells” value (antisense oligonucleotide overlapping the 8-binding site (SL I ASO)) was “inhibited cleavage”.
